Source: US4377574A, “Contraceptive treatment of male mammals” (The Salk Institute For Biological Studies, priority 1981, dated 1983)
Where a SMILES comes first, the peptide text is derived from it. [ ]: non-standard residue; d: D form. dPhe(4-Cl) = N[C@H](Cc1ccc(Cl)cc1)C(=O)O; NMeL = CN[C@@H](CC(C)C)C(=O)O; ΔPro = O=C(O)[C@@H]1C=CCN1

How the values were obtained:
[1] = tested on: pituitary gland of mammalians; details: cited from earlier work
[2] = tested on: male rats; assay: contraceptive treatment of male rats, 14-day daily injection; assay type: in vivo, rat; details: 14-day treatment
Excerpt: The peptide is used at a level effective to reduce testes and seminal vesicles weights and also to inhibit spermatogenesis after a 14-day administration to male rats. […] Prostate weights of male rats recover in 2-3 weeks and seminal vesicles weights in 4-5 weeks. It is preferred to use dosage levels in the range of from about 0.1 to about 1 milligram per rat per day, which can be administered without detrimental side effects.
(§1) Male rats (about 320 grams each) are each treated with 1 milligram of the peptide synthesized in Example I, once a day, for 14 days by injection in 0.2 ml. of corn oil. All the rats show a decrease in testes and seminal vesicles weight, spermatogenesis and plasma androgen levels.
Full recovery of testes and seminal vesicle weights and spermatogenesis ultimately occurs following cessation of the 14-day peptide administration. […] Fertility, as assessed by the ability to impregnate females, is restored in all of the rats which have not been sacrificed within 6 weeks after cessation of the injections.
as §1, with “A first group (I) of male” for “Male”, “Peptide A” for “the peptide”, “III, every day” for “I, once a day,”, “days,” for “days”, “levels. […]” for “levels.”

Compound | potency as an inhibitor for the release of gonadotropins relative to the same peptide with Gly in the 6-position [1] [times] | side effects / damage [2]
[des His^2, D--Ala^6 ] LRF | 3 | 
CC(=O)N1CC=C[C@H]1C(=O)N[C@H](Cc1ccc(Cl)cc1)C(=O)N[C@H](Cc1c[nH]c2ccccc12)C(=O)N[C@@H](CO)C(=O)N[C@@H](Cc1ccc(O)cc1)C(=O)N[C@H](Cc1c[nH]c2ccccc12)C(=O)N(C)[C@@H](CC(C)C)C(=O)N[C@@H](CCCNC(=N)N)C(=O)N1CCC[C@H]1C(=O)NCC(N)=O [Example I, [Ac--dehydro Pro^1, pCl--D--Phe^2,D--Trp^3,6,N^α MeLeu^7]--LRF] (Ac-[ΔPro][dPhe(4-Cl)][dW]SY[dW][NMeL]RPG-NH2) |  | without harmful side effects or irreversible damage
